Literature values in patent publication US6140347A, “Azetidine, pyrrolidine and piperidine derivatives as 5-HT receptor agonists” (Merck Sharp & Dohme Ltd., priority 1996, dated 2000).

Columns and labels:
[1] = system: human 5-HT1Dα and 5-HT1Dβ receptor subtypes; settings: cf. WO-A-91/17174, Table 1
[2] = therapeutic doses

Structure (SMILES): CNS(=O)(=O)Cc1ccc2[nH]cc(CCN(C)C)c2c1 [sumatriptan]
- discrimination between the human 5-HT1Dα and 5-HT1Dβ receptor subtypes (in words) [1]: barely discriminates
- adverse cardiovascular events in humans (in words) [2]: certain adverse cardiovascular events
